The values that follow come from patent publication US8058283B2, “7H-pyrido[3,4-D]pyrimidin-8-ones, their manufacture and use as protein kinase inhibitors” (Hoffmann-La Roche Inc., priority 2006, dated 2011).

The structures appear in SMILES notation.

Common to all, as to format: biochemical
The target of one assay is T1, Src (p60c-src) (Homo sapiens, UniProt P12931).
T1 construct: purchased UBI, Upstate Biotech, Inc
Nature of the assay: Src-Inhibitor-Assay (time-resolved fluorescence). The following applies: ATP 5 μM; enzyme pre-incubated 15 min at 15° C. with inhibitor. Here is the method: Src-Inhibitor-Assay Parameters:
• ATP 5 μM • Peptide (Ro+Ja133-Ro): 10 μM • Ja133-Ro 196 nM • Ro 9.8 μM • PT66 230 ng/ml • Assay buffer: 4 mM MgCl2 • 2 mM TCEP • 50 mM HEPES • 0.1% Tween 20 • pH 7.3 • Enzyme: 2.5 U/ml • Inhibitor: max. 25 μM • min. 0.42 nM Material: • Eu-labelled phosphotyrosine antibody: —for Lck Cisbio Mab PT66-K, • for Src EG&G Wallac PT66 Eu-W1024 (all commercially available). • Peptides: Ro: NH2-A-E-E-E-I-Y-G-E-F-E-A-K-K-K-K-CONH2, and • Ja133-Ro: Ja133-G-Aminocaprylic acid-A-E-E-E-I-Y-G-E-F-E-A-K-K-K-K-CONH2, wherein Ja133 is LightCycler-Red 640-N-hydroxy succinimide ester; • whereby both peptides were synthesized by an optimized solid phase peptide synthesis protocol (Merrifield, Fed. Proc. Fed. Amer. Soc. Exp. Biol. 21 (1962) 412) on a Zinsser SMP350 peptide synthesizer. Shortly, the peptide was assembled on 160 mg (22.8 μmol scale) of a Rink-Linker modified polystyrene solid phase by repeatedly conjugating an twenty fold excess of amino acids each protected by temporary piperidine labile Fmoc- and permanent acid labile tert-Bu-, BOC- and O-tert-Bu-groups depending on the side chain function. The substrate sequence AEEEIYGEFEAKKKK was N-terminal additionally mounted with the spacer amino acids Aminocaprylic acid and Glycin. After cleavage of the N-terminal temporary protecting group the still attached and protected peptide was labeled with a 1.5 fold amount of LightCycler-Red 640-N-hydroxy succinimide ester (purchased from Roche Diagnostics GmbH) and triethylamine. After 3 hrs. the resin was washed with Dimethylformamide and Isopropanol until the eluates of the blue resin got colourless. […] The substrate was finally isolated by a preparative reverse phase HPLC purification. The purification yielded 12.2 mg RP-HPLC single peak pure blue material (lyophilisate). The identity was proven by MALDI mass spectroscopy [2720.0]. • Enzymes: Upstate Lck (p56^lck, active), Upstate Src (p60^c-src, partially purified) were purchased from UBI, Upstate Biotech, Inc. Time-resolved Fluorescence Assay: Reader: Perkin Elmer, Wallac Viktor 1420-040 multilabel counter; Liquid handling system: Beckman Coulter, Biomek 2000.
ATP, Tween™ 20, 4-(2-hydroxyethyl)-1-piperazineethanesulfonic acid (HEPES) were purchased from Roche Molecular Biochemicals, MgCl2 and MnCl2 were purchased from Merck Eurolab, Tris(2-carboxyethyl)phosphine hydrochloride (TCEP) was purchased from Pierce, 384 Well low volume fluorescence plates was purchased from Falcon.
At first the enzyme is pre-incubated for 15 min. at 15° C. in aqueous solution with corresponding amounts of inhibitors according to this invention. Then the phosphorylation reaction is started by adding a reaction mixture, containing ATP, Peptide and PT66, and subsequent shaking. The proceeding of this reaction is immediately monitored using time resolved fluorescence spectroscopy in a suitable well plate reader.
The IC50-values can be obtained from the reaction rates by using a non-linear curve fit (XLfit software (ID Business Solution Ltd., Guilford, Surrey, UK)).

The target in assay [1] is T2, mouse Abl (27-end) fusion protein (Mus musculus, UniProt P00520).
T2 construct: fusion protein corresponding to mouse Abl (27-end)
T2 sequence (P00520 27-1123 limits assumed): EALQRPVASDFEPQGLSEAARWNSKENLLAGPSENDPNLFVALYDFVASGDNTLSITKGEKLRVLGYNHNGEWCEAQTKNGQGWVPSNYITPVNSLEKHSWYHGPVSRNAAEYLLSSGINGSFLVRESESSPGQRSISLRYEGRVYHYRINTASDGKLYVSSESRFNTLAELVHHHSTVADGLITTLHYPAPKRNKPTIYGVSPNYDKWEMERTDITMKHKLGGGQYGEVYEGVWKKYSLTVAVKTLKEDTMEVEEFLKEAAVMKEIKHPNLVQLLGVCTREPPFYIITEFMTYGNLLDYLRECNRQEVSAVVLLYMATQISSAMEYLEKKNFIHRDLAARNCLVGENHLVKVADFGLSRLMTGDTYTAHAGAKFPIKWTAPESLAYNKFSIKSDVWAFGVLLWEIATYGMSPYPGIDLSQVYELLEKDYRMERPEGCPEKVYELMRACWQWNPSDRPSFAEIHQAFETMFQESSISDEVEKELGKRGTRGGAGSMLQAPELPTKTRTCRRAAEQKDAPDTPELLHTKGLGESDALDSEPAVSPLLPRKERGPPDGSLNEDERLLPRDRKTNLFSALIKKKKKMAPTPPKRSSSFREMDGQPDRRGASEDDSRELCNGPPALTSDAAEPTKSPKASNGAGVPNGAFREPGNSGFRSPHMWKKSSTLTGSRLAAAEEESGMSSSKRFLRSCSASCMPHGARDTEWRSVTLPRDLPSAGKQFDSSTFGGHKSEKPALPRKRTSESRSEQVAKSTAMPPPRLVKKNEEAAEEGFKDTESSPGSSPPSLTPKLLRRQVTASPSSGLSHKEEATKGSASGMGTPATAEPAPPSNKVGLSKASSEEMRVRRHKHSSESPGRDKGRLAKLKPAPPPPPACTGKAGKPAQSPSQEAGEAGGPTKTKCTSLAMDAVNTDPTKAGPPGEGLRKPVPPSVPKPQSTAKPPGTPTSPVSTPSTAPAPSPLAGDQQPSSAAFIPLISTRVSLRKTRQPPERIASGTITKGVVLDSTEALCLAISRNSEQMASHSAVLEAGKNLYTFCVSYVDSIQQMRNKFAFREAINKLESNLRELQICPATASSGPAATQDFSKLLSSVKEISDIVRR
The assay can be described thus: IC50 determination for inhibitors of Abl kinase (IMAP fluorescence polarization). The following applies: 22.8 uM ATP, 37° C., 60 minutes; read-out: IC50 Abl kinase inhibition. Here is the method: IC50 Determination for Inhibitors of Abl Kinase
Abl assay was done using fusion protein corresponding to mouse Abl (27-end) fluorescein labeled peptide substrate (with a sequence of EAIYAAPFAKKK) and quantified by Molecular Devices' IMAP fluorescence polarization technology. Compounds were tested in serially diluted concentrations in 384 well plates. Kinase reaction was performed in KAB Buffer (10 mM HEPES, pH 7, 50 mM NaCl, 5 mM MgCl2, 1 mM DTT, 0.1 mM NaVO4, 0.02% BSA), in the presence of 22.8 uM ATP, incubated at 37° C. for 60 minutes. Reaction was stopped by IMAP bead mix (at 1:400 diluted). After incubation at room temperature for 3 hours, the reaction product was analyzed on LJL Acquest (excitation 485 nm and Emission 530 nm).
(§1) FP reading (in mP) was used to calculate reaction rate. The assay was semi-automated by Tomtec Quadra workstation.
(Fluorescence polarisation rises when a labelled molecule tumbles more slowly, as on binding a larger partner.)

Assay [2] deals with human recombinant PDGFR beta (Homo sapiens, UniProt P09619). The assay can be described thus: IC50 determination for inhibitors of PDGFR kinase (IMAP fluorescence polarization). To be noted: 48 uM ATP, room temperature, 60 minutes; read-out: IC50 PDGFR kinase inhibition. Here is the method: IC50 Determination for Inhibitors of PDGFR Kinase Assay Principle
Sequence of human recombinant PDGFR beta (P09619 33-1106): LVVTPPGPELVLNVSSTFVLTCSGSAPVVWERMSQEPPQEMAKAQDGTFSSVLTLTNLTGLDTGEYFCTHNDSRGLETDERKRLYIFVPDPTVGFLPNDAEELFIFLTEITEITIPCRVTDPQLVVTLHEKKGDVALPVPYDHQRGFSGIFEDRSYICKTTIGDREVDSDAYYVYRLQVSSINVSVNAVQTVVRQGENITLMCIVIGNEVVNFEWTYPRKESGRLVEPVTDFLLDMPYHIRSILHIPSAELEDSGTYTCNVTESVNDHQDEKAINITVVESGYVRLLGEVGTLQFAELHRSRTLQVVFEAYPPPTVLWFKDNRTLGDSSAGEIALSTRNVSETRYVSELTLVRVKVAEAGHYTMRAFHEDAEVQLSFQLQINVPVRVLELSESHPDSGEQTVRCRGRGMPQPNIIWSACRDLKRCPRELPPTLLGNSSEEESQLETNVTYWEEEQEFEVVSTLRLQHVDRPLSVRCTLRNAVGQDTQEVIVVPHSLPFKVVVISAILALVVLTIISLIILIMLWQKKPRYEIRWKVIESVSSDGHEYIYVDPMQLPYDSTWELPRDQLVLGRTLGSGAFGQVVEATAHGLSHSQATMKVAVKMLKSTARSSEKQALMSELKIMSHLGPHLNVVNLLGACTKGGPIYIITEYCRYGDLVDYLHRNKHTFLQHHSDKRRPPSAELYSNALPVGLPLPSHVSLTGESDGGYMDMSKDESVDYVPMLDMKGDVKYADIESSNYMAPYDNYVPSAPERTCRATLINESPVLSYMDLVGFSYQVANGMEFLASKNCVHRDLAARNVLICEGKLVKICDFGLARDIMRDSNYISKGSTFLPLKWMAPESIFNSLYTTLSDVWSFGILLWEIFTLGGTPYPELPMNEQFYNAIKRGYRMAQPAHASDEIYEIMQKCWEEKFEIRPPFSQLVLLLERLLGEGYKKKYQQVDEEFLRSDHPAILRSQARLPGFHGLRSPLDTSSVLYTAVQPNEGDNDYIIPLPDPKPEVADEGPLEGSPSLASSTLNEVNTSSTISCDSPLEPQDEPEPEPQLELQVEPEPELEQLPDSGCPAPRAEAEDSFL
PDGFR assay was carried out with human recombinant PDGFR beta, fluorescein labeled peptide substrate (with a peptide sequence of ALTSNQEYLDLSMPL) and test compounds (in serial dilution) using 384-well plates. Kinase reaction was performed in MOPS buffer (20 mM MOPS pH 7.1, 5 mM Sodium Acetate, 6.25 mM MgCl2, 0.5 mM EDTA, 1 mM DTT, 0.04 mM NaVO4, 0.02% BSA), in the presence of 48 uM ATP, incubated at room temperature for 60 minutes. Reaction was stopped by IMAP Bead Binding System (Molecular Devices). After incubation at room temperature for 2 hours, the reaction product was analyzed on LJL Acquest.
as §1

T1 sequence (P12931 whole entry): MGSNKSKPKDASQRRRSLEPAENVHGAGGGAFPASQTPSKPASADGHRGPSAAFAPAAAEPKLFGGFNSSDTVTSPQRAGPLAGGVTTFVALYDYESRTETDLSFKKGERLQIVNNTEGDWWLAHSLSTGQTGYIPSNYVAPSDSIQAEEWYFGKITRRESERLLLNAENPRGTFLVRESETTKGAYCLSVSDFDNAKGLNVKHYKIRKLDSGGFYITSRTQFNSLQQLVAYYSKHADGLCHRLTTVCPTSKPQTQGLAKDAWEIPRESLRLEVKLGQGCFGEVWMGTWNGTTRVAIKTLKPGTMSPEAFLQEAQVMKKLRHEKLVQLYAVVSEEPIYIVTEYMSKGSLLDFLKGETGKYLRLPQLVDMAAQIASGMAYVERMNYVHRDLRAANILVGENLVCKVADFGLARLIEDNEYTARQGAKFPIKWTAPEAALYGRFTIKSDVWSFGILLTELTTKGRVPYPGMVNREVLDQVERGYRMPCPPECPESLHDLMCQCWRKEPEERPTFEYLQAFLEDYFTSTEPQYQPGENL

As a reminder, the IC50 is the concentration that gives 50% inhibition. For `Cc1ccccc1-c1cc2cnc(Nc3ccc(N4CCOCC4)cc3)nc2c(=O)n1C` [Example 1, 7-Methyl-2-(4-morpholin-4-yl-phenylamino)-6-o-tolyl-7H-pyrido[3,4-d]pyrimidin-8-one], the figures for the half-maximal inhibitory concentration (IC50) (against Src (p60c-src); in assay [1]; in assay [2]) were 2.9 nM, 1 to 500 nM and 1 to 500 nM, respectively.

As for `Cc1ccccc1-c1cc2cnc(Nc3ccc(N4CCN(C)CC4)cc3)nc2c(=O)n1C` [Example 3, 7-Methyl-2-[4-(4-methyl-piperazin-1-yl)-phenylamino]-6-o-tolyl-7H-pyrido[3,4-d]pyrimidin-8-one], the half-maximal inhibitory concentration (IC50) against Src (p60c-src) is 1 to 500 nM; in assay [1], 1 to 500 nM; in assay [2] it was 94 nM.

Turning to `Cc1ccccc1-c1cc2cnc(NC(CO)CO)nc2c(=O)n1C` [Example 4, 2-(2-Hydroxy-1-hydroxymethyl-ethylamino)-7-methyl-6-o-tolyl-7H-pyrido[3,4-d]pyrimidin-8-one], the values for the IC50 (on Src (p60c-src); in assay [1]) were 500 to 1500 nM and 500 to 15000 nM, respectively.

On to `Cc1ccccc1-c1cc2cnc(Nc3ccc(S(=O)(=O)NCCO)cc3)nc2c(=O)n1CC(N)=O` [Example 5, 2-{2-[4-(2-Hydroxy-ethylsulfamoyl)-phenylamino]-8-oxo-6-o-tolyl-8H-pyrido[3,4-d]pyrimidin-7-yl}-acetamide], for which the 50% inhibitory concentration (IC50) was 1 to 500 nM on Src (p60c-src) and 77 nM in assay [1].

In the case of `Cc1ccccc1-c1cc2cnc(Nc3ccc(S(=O)(=O)NCCO)cc3)nc2c(=O)n1C` [Example 6, N-(2-Hydroxy-ethyl)-4-(7-methyl-8-oxo-6-o-tolyl-7,8-dihydro-pyrido[3,4-d]pyrimidin-2-ylamino)-benzenesulfonamide], the IC50 (against Src (p60c-src); in assay [1]; in assay [2]) was 1 to 500 nM throughout.

For the molecule `CCN(CC)CCOc1ccc(Nc2ncc3cc(-c4ccccc4C)n(C)c(=O)c3n2)cc1` [Example 7, 2-[4-(2-Diethylamino-ethoxy)-phenylamino]-7-methyl-6-o-tolyl-7H-pyrido[3,4-d]pyrimidin-8-one], the 50% inhibitory concentration (IC50) (against Src (p60c-src); in assay [1]; in assay [2]) was 1 to 500 nM in each case.

Consider `Cc1ccccc1-c1cc2cnc(Nc3cccc([S+](C)[O-])c3)nc2c(=O)n1CC(N)=O` (stereo not shown) [Example 8, 2-[2-(3-Methanesulfinyl-phenylamino)-8-oxo-6-o-tolyl-8H-pyrido[3,4-d]pyrimidin-7-yl]-acetamide], for which the figures for the IC50 (on Src (p60c-src); in assay [1]) were 1 to 500 nM and 214 nM, respectively.

With `Cc1ccccc1-c1cc2cnc(Nc3cccc([S+](C)[O-])c3)nc2c(=O)n1C` (stereo not shown) [Example 10, 2-(3-Methanesulfinyl-phenylamino)-7-methyl-6-o-tolyl-7H-pyrido[3,4-d]pyrimidin-8-one], the figures for the IC50 (at Src (p60c-src); in assay [1]; in assay [2]) were 1 to 500 nM, 1 to 500 nM and 417 nM, respectively.

On to `Cc1ccccc1-c1cc2cnc(NC3CCOCC3)nc2c(=O)n1C` [Example 12, 7-Methyl-2-(tetrahydro-pyran-4-ylamino)-6-o-tolyl-7H-pyrido[3,4-d]pyrimidin-8-one], for which the values for the half-maximal inhibitory concentration (IC50) (at Src (p60c-src); in assay [1]) were 687 nM and 500 to 15000 nM, respectively.

In the case of `COc1cccc(Cn2c(-c3ccccc3C)cc3cnc(Nc4ccc(N5CCN(C)CC5)cc4)nc3c2=O)c1` [Example 20, 7-(3-Methoxy-benzyl)-2-[4-(4-methyl-piperazin-1-yl)-phenylamino]-6-o-tolyl-7H-pyrido[3,4-d]pyrimidin-8-one], the IC50 on Src (p60c-src) was in the range of 1 to 500 nM; in assay [1] it was 1 to 500 nM; in assay [2] it was 500 to 15000 nM.

For `COc1cccc(Cn2c(-c3ccccc3C)cc3cnc(Nc4ccc(S(=O)(=O)NCCO)cc4)nc3c2=O)c1` [Example 21, N-(2-Hydroxy-ethyl)-4-[7-(3-methoxy-benzyl)-8-oxo-6-o-tolyl-7,8-dihydro-pyrido[3,4-d]pyrimidin-2-ylamino]-benzenesulfonamide], the IC50 (on Src (p60c-src); in assay [1]) was 1 to 500 nM throughout.

With `CCN(CC)CCOc1ccc(Nc2ncc3cc(-c4ccccc4C)n(Cc4cccc(OC)c4)c(=O)c3n2)cc1` [Example 22, 2-[4-(2-Diethylamino-ethoxy)-phenylamino]-7-(3-methoxy-benzyl)-6-o-tolyl-7H-pyrido[3,4-d]pyrimidin-8-one], the half-maximal inhibitory concentration (IC50) in assay [1] was in the range of 1 to 500 nM.

As to `COc1cccc(Cn2c(-c3ccccc3C)cc3cnc(Nc4cccc([S+](C)[O-])c4)nc3c2=O)c1` (stereo not shown) [Example 23, 2-(3-Methanesulfinyl-phenylamino)-7-(3-methoxy-benzyl)-6-o-tolyl-7H-pyrido[3,4-d]pyrimidin-8-one], the concentration for half-maximal inhibition (IC50) (against Src (p60c-src); in assay [1]) was 1 to 500 nM throughout.

Consider `Cc1cc(Cn2c(-c3ccccc3Cl)cc3cnc(Nc4ccc(N5CCN(C)CC5)cc4)nc3c2=O)nn1C` [Example 30, 6-(2-Chloro-phenyl)-7-(1,5-dimethyl-1H-pyrazol-3-ylmethyl)-2-[4-(4-methyl-piperazin-1-yl)-phenylamino]-7H-pyrido[3,4-d]pyrimidin-8-one], for which the IC50 fell in the range of 1 to 500 nM at Src (p60c-src), 1 to 500 nM in assay [1] and 500 to 15000 nM in assay [2].

For `CCN(CC)CCOc1ccc(Nc2ncc3cc(-c4ccccc4Cl)n(Cc4cc(C)n(C)n4)c(=O)c3n2)cc1` [Example 31, 6-(2-Chloro-phenyl)-2-[4-(2-diethylamino-ethoxy)-phenylamino]-7-(1,5-dimethyl-1H-pyrazol-3-ylmethyl)-7H-pyrido[3,4-d]pyrimidin-8-one], the concentration for half-maximal inhibition (IC50) (at Src (p60c-src); in assay [1]) was 1 to 500 nM each time.

In the case of `Cc1cc(Cn2c(-c3ccccc3Cl)cc3cnc(Nc4cccc([S+](C)[O-])c4)nc3c2=O)nn1C` (stereo not shown) [Example 33, 6-(2-Chloro-phenyl)-7-(1,5-dimethyl-1H-pyrazol-3-ylmethyl)-2-(3-methanesulfinyl-phenylamino)-7H-pyrido[3,4-d]pyrimidin-8-one], the IC50 (against Src (p60c-src); in assay [1]) was 1 to 500 nM in each case.

As for `COc1cccc(Cn2c(-c3ccccc3Cl)cc3cnc(Nc4ccc(S(=O)(=O)NCCO)cc4)nc3c2=O)c1` [Example 37, 4-[6-(2-Chloro-phenyl)-7-(3-methoxy-benzyl)-8-oxo-7,8-dihydro-pyrido[3,4-d]pyrimidin-2-ylamino]-N-(2-hydroxy-ethyl)-benzenesulfonamide], the IC50 (on Src (p60c-src); in assay [1]) was 1 to 500 nM each time.
